According to ChEMBL document CHEMBL4819064, “Discovery of new pyrimidopyrrolizine/indolizine-based derivatives as P-glycoprotein inhibitors: Design, synthesis, cytotoxicity, and MDR reversal activities” (Eur J Med Chem, 2021):

Key:
[1] = test system: HT-29; test: Cytotoxicity against human HT29 cells assessed as reduction in cell viability incubated for 72 hrs by MTT assay; settings: HT-29, 72 h
[2] = test system: MCF7; test: Cytotoxicity against human MCF7 cells assessed as reduction in cell viability incubated for 72 hrs by MTT assay; type: functional, cell-based; settings: MCF7, 72 h
[3] = test system: A2780; test: Cytotoxicity against human A2780 cells assessed as reduction in cell viability incubated for 72 hrs by MTT assay; settings: A2780, 72 h
[4] = Selectivity index, ratio of IC50 for human MRC5 cells to IC50 for human MCF7 cells; type: toxicity; settings: MRC5 cells versus MCF7 cells, read-out: Ratio IC50
[5] = Selectivity index, ratio of IC50 for human MRC5 cells to IC50 for human HT29 cells; type: toxicity; settings: MRC5 cells versus HT29 cells, read-out: Ratio IC50
[6] = Selectivity index, ratio of IC50 for human MRC5 cells to IC50 for human A2780 cells; type: toxicity; settings: MRC5 cells versus A2780 cells, read-out: Ratio IC50
[7] = test system: MRC5; test: Cytotoxicity against human MRC5 cells assessed as reduction in cell viability incubated for 72 hrs by MTT assay; settings: MRC5, 72 h
[8] = test system: NCI/ADR-RES; test: Synergistic cytotoxicity against human MCF7/ADR cells assessed as combination index at 0.5 uM after 72 hrs in presence of 1 uM doxorubicin by MTT assay; type: functional
[9] = test system: NCI/ADR-RES; test: Synergistic cytotoxicity against human MCF7/ADR cells assessed as combination index at 0.5 uM after 72 hrs in presence of 0.25 uM doxorubicin by MTT assay; type: functional
[10] = test system: NCI/ADR-RES; test: Synergistic cytotoxicity against human MCF7/ADR cells assessed as combination index at 0.25 uM after 72 hrs in presence of 0.5 uM doxorubicin by MTT assay; type: functional
[11] = test system: NCI/ADR-RES; test: Cytotoxicity against human MCF7/ADR cells assessed as reduction in cell viability incubated for 72 hrs by MTT assay
[12] = test system: NCI/ADR-RES; test: Cytotoxicity against human MCF7/ADR cells assessed as reduction in cell viability incubated for 72 hrs in presence of doxorubicin by MTT assay; type: functional, cell-based
[13] = test system: NCI/ADR-RES; test: Synergistic cytotoxicity against human MCF7/ADR cells assessed as combination index at 1 uM after 72 hrs in presence of 1 uM doxorubicin by MTT assay; type: functional
[14] = test system: NCI/ADR-RES; test: Synergistic cytotoxicity against human MCF7/ADR cells assessed as combination index at 0.25 uM after 72 hrs in presence of 0.25 uM doxorubicin by MTT assay; type: functional
[15] = test system: NCI/ADR-RES; test: Synergistic cytotoxicity against human MCF7/ADR cells assessed as combination index at 1 uM after 72 hrs in presence of 0.5 uM doxorubicin by MTT assay; type: functional
[16] = test system: NCI/ADR-RES; test: Synergistic cytotoxicity against human MCF7/ADR cells assessed as combination index at 0.5 uM after 72 hrs in presence of 0.5 uM doxorubicin by MTT assay; type: functional
[17] = test system: NCI/ADR-RES; test: Synergistic cytotoxicity against human MCF7/ADR cells assessed as combination index at 0.25 uM after 72 hrs in presence of 1 uM doxorubicin by MTT assay; type: functional
[18] = test system: NCI/ADR-RES; test: Synergistic cytotoxicity against human MCF7/ADR cells assessed as combination index at 1 uM after 72 hrs in presence of 0.25 uM doxorubicin by MTT assay; type: functional
[19] = Reversal of multidrug resistant activity in human MCF7/ADR cells assessed as reversal fold after 72 hrs by MTT assay; type: functional, NCI/ADR-RES
[20] = target: T1, P-gp (ABCB1) (Homo sapiens, UniProt P08183); test: Inhibition of P-gp activity in human MCF7/ADR cells at 250 nM after 72 hrs by RT-PCR analysis relative to control; type: cell-based, NCI/ADR-RES; settings: MCF7/ADR cells
[21] = target: ATP-dependent translocase ABCB1 (Homo sapiens, UniProt P08183); test: Inhibition of P-gp activity in human MCF7/ADR cells after 72 hrs by RT-PCR analysis; type: cell-based; settings: nci/adr-res, at 125 to 1000 nM, dose 125-1000 nM
[22] = target: T1, P-gp (ABCB1); test: Inhibition of P-gp activity in human MCF7/ADR cells at 125 nM after 72 hrs by RT-PCR analysis relative to control; type: cell-based, NCI/ADR-RES
[23] = target: T1, P-gp (ABCB1); test: Inhibition of P-gp activity in human MCF7/ADR cells at 1000 nM after 72 hrs by RT-PCR analysis relative to control; type: cell-based, NCI/ADR-RES; settings: MCF7/ADR cells
[24] = target: T1, P-gp (ABCB1); test: Inhibition of P-gp activity in human MCF7/ADR cells at 500 nM after 72 hrs by RT-PCR analysis relative to control; type: cell-based, NCI/ADR-RES; settings: MCF7/ADR cells
[25] = Inhibition of P-gp in mouse EMT6/AR1.0 cells assessed reduction in tritiated daunomycin efflux incubated for 2 hrs by radioactivity based assay; type: cell-based; settings: EMT6/AR1, 2 h

T1 sequence (P08183 whole entry): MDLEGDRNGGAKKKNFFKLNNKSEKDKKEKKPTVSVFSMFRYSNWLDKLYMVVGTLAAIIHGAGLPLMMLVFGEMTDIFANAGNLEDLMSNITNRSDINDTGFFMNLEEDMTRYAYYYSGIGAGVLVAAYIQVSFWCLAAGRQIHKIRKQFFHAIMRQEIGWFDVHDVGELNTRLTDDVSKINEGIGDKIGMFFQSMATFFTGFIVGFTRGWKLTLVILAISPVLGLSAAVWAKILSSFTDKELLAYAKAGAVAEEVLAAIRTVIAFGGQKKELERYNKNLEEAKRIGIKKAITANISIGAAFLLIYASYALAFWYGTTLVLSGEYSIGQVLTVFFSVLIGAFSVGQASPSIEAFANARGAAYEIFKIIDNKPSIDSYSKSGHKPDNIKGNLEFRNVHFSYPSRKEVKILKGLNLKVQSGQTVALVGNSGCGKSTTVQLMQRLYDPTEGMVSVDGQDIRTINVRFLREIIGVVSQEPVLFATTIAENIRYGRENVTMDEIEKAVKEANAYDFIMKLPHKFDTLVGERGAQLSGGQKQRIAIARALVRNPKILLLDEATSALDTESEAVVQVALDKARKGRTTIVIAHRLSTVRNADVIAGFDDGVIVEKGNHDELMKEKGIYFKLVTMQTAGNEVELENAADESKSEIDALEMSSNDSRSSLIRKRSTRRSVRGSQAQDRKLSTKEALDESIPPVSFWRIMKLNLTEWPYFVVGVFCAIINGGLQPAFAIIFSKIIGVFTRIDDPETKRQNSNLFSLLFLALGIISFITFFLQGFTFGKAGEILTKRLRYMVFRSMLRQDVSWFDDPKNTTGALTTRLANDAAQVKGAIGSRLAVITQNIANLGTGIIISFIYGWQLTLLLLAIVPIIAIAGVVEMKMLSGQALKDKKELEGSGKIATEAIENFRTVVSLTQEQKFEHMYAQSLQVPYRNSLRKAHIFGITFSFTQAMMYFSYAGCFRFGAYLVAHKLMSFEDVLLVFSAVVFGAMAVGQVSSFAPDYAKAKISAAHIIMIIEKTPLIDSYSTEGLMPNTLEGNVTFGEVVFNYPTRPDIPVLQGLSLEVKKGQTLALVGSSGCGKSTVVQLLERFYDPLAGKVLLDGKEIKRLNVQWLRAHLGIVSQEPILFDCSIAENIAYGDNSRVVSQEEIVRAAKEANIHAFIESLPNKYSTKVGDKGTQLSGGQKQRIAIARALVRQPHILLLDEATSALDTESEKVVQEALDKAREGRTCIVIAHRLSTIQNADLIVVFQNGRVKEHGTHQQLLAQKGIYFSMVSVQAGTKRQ
Sequence of ATP-dependent translocase ABCB1 (P08183 whole entry): as above

| SMILES | IC50 [1] | IC50 [2] | IC50 [3] | selectivity ratio [4] | selectivity ratio [5] | selectivity ratio [6] | IC50 [7] | CI [8] | CI [9] | CI [10] | IC50 [11] | IC50 [12] | CI [13] | CI [14] | CI [15] | CI [16] | CI [17] | CI [18] | fold change (FC) [19] | further results |
| --- | --- | --- | --- | --- | --- | --- | --- | --- | --- | --- | --- | --- | --- | --- | --- | --- | --- | --- | --- | --- |
| N#Cc1c2c(n3c1CCC3)C(=O)N(c1ccc(F)cc1)CC(=O)N2 | 9710 nM | 190 nM | 970 nM | 7.68 | 0.15 | 1.51 | 1460 nM | – | – | – | – | – | – | – | – | – | – | – | – | – |
| COc1ccc(-n2c(=O)[nH]c3c(C#N)c4n(c3c2=O)CCC4)cc1 | 420 nM | 19600 nM | 15600 nM | 0.71 | 33 | 0.88 | 13800 nM | – | – | – | – | – | – | – | – | – | – | – | – | – |
| COc1ccc(-n2c(C)nc3c(C#N)c4n(c3c2=O)CCC4)cc1 | 160 nM | 80 nM | 70 nM | 216 | 108 | 247 | 17300 nM | 0.2 | 37.214 | 11.363 | 30500 nM | 7580 nM | 0.3 | >100 | 5.646 | 2.952 | 0.19 | >100 | 2.4 | – |
| N#Cc1c2n(c3c(=O)n(-c4ccc(F)cc4)cnc13)CCC2 | 480 nM | 650 nM | 720 nM | 17.3 | 23.4 | 15.6 | 11200 nM | 0.12 | >100 | 14.6 | 10300 nM | 2210 nM | 0.1 | >100 | 2.647 | 1.089 | 0.6 | >100 | 8.24 | inhibition at 72 h, 0.25 µM [20]: 65%; inhibition (INH) [21]: Dose-Dependent Effect; inhibition at 72 h, 0.125 µM [22]: 9%; inhibition at 72 h, 1 µM [23]: 92%; inhibition at 72 h, 0.5 µM [24]: 91% |
| N#Cc1c2n(c3c(SCc4ccc(Cl)cc4)ncnc13)CCCCC2 | – | – | – | – | – | – | – | – | – | – | – | – | – | – | – | – | – | – | – | IC50 [25]: > 50000 nM |
| N#Cc1c2n(c3c(=O)n(-c4ccc(Cl)cc4)cnc13)CCCC2 | 420 nM | 250 nM | 70 nM | 1.2 | 0.71 | 4.29 | 300 nM | 0.9 | >100 | >100 | 37300 nM | 6330 nM | 0.21 | >100 | >100 | >100 | 0.19 | >100 | 2.88 | – |
| Cc1nc2c(C#N)c3n(c2c(=O)n1-c1ccc(Cl)cc1)CCCC3 | 10500 nM | 10800 nM | 630 nM | 0.14 | 0.15 | 2.44 | 1540 nM | – | – | – | – | – | – | – | – | – | – | – | – | – |
| COc1ccc(N2CC(=O)Nc3c(C#N)c4n(c3C2=O)CCC4)cc1 | 200 nM | 2830 nM | 6280 nM | 3.38 | 47.9 | 1.52 | 9570 nM | – | – | – | – | – | – | – | – | – | – | – | – | – |
| Cc1nc2c(C#N)c3n(c2c(=O)n1-c1ccccc1)CCCC3 | 880 nM | 1790 nM | 50 nM | 4.23 | 8.61 | 152 | 7580 nM | – | – | – | – | – | – | – | – | – | – | – | – | – |
| O=C(Nc1ccc(F)cc1)c1c2nc[nH]c(=O)c2c2n1CCC2 | 1020 nM | 740 nM | 580 nM | 0.23 | 0.17 | 0.29 | 170 nM | – | – | – | – | – | – | – | – | – | – | – | – | – |
| Cc1nc2c(C#N)c3n(c2c(=O)n1-c1ccc(Br)cc1)CCCC3 | 10800 nM | 1650 nM | 160 nM | 2.25 | 0.35 | 23.2 | 3710 nM | – | – | – | – | – | – | – | – | – | – | – | – | – |
| Cc1nc2c(C#N)c3n(c2c(=O)n1-c1ccc(F)cc1)CCC3 | 780 nM | 170 nM | 150 nM | 16.4 | 3.56 | 18.5 | 2780 nM | 0.2 | >100 | >100 | 46900 nM | 6120 nM | 0.1 | >100 | 9.602 | >100 | 0.89 | >100 | 2.98 | – |
| COc1ccc(NC(=O)c2c3nc[nH]c(=O)c3c3n2CCC3)cc1 | 140 nM | 1430 nM | 15600 nM | 1.07 | 10.9 | 0.1 | 1530 nM | – | – | – | – | – | – | – | – | – | – | – | – | – |
| N#Cc1c2n(c3c(=O)n(-c4ccc(Br)cc4)cnc13)CCCC2 | 14200 nM | 270 nM | 20 nM | 58.6 | 1.12 | 792 | 15800 nM | 0.91 | >100 | >100 | 20200 nM | 3070 nM | 0.1 | >100 | 1.53 | 1.141 | 0.2 | >100 | 5.93 | inhibition at 72 h, 0.25 µM [20]: 63%; inhibition (INH) [21]: Dose-Dependent Effect; inhibition at 72 h, 0.125 µM [22]: 5%; inhibition at 72 h, 1 µM [23]: 90%; inhibition at 72 h, 0.5 µM [24]: 87% |
| N#Cc1c2n(c3c(=O)n(-c4ccc(F)cc4)c(=O)[nH]c13)CCC2 | 4380 nM | 880 nM | 730 nM | 0.27 | 0.05 | 0.33 | 240 nM | – | – | – | – | – | – | – | – | – | – | – | – | – |
| COc1ccc(-n2cnc3c(C#N)c4n(c3c2=O)CCC4)cc1 | 11000 nM | 2610 nM | 1360 nM | 7.88 | 1.88 | 15.1 | 20600 nM | – | – | – | – | – | – | – | – | – | – | – | – | – |
